For 28 compounds, EC50 results are on record in patent publication US20070213301A1 (ACHILLION PHARMACEUTICALS, INC., priority 2006, published 2007).

The subject of this test is HCV replicon. The experiment in a line: HCV replicon replication assay (NPTII ELISA). It is filed as cell-based, Hepatitis C virus (Huh-7 cells). The settings on record: Hepatitis C virus, Huh-7, 72 h, inhibition of HCV replicon replication in Huh-7 HCV replicon-containing cells, three days incubation, NPT level by ELISA; read-out: EC50. In a few lines:
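Huh-7 cells carrying a Bartenschlager NPTII (neo) HCV replicon, treated 3 days at 37 °C with compound, generally 6 concentrations from 10 to 0.03 micromolar, in equal DMSO across wells. NPTII level, proportional to replication, read by capture ELISA on methanol:acetone-fixed cells; interferon alpha positive control; toxicity scored visually or by MTS.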

Take `CCCCCOc1ccc(N(C(N)=O)c2nc(-c3ccc(F)cc3)cs2)cc1F` [Compound 111, 1-(3-fluoro-4-(pentyloxy)phenyl)-1-(4-(4-fluorophenyl)thiazol-2-yl)urea]: the EC50 (in general, the midpoint of the concentration-response curve) was less than 1 µM.
In the case of `CCCCCOc1ccc(N(C(N)=O)c2nc(-c3ccccn3)cs2)cc1F` [Compound 112, 1-(3-fluoro-4-(pentyloxy)phenyl)-1-(4-(pyridin-2-yl)thiazol-2-yl)urea], the half-maximal effective concentration (EC50) fell in the range of 1 to 10 µM.
As for `CCCCCOc1ccc(N(C(N)=O)c2nc(-c3ccc(F)c(F)c3)cs2)cc1F` [Compound 113, 1-(4-(3,4-difluorophenyl)thiazol-2-yl)-1-(3-fluoro-4-(pentyloxy)phenyl)urea], the figure is 1 to 10 µM.
The value for `Cc1ccc(-c2csc(N(C(N)=O)c3ccc(OCC4CCCCC4)c(F)c3)n2)cn1` [Compound 114, 1-(4-(cyclohexylmethoxy)-3-fluorophenyl)-1-(4-(6-methylpyridin-3-yl)thiazol-2-yl)urea] was 1 to 10 µM.
As for `NC(=O)c1cc(-c2csc(N(C(N)=O)c3ccc(OCC4CCCCC4)c(F)c3)n2)ccc1O` [Compound 115, 5-(2-(1-(4-(cyclohexylmethoxy)-3-fluorophenyl)ureido)thiazol-4-yl)-2-hydroxybenzamide], the EC50 was 1 to 10 µM.
The value for `NC(=O)N(c1ccc(OCC2CCCCC2)c(F)c1)c1nc(-c2ccc3c(c2)NC(=O)CO3)cs1` [Compound 116, 1-(4-(cyclohexylmethoxy)-3-fluorophenyl)-1-(4-(3-oxo-3,4-dihydro-2H-benzo[b][1,4]oxazin-6-yl)thiazol-2-yl)urea] was greater than 10 µM; that for `NC(=O)N(c1ccc(OCC2CCCCC2)c(F)c1)c1nc(-c2ccc(F)cc2)cs1` [Compound 117, 1-(4-(cyclohexylmethoxy)-3-fluorophenyl)-1-(4-(4-fluorophenyl)thiazol-2-yl)urea] was 1 to 10 µM; that for `NC(=O)N(c1ccc(OCC2CCCCC2)c(F)c1)c1nc(-c2ccccn2)cs1` [Compound 118, 1-(4-(cyclohexylmethoxy)-3-fluorophenyl)-1-(4-(pyridin-2-yl)thiazol-2-yl)urea] was 1 to 10 µM.
For the compound `NC(=O)N(c1ccc(OCC2CCCCC2)c(F)c1)c1nc(-c2cccnc2)cs1` [Compound 119, 1-(4-(cyclohexylmethoxy)-3-fluorophenyl)-1-(4-(pyridin-3-yl)thiazol-2-yl)urea], the concentration for a half-maximal effect (EC50) was less than 1 µM.
As for `NC(=O)N(c1ccc(OCC2CCCCC2)c(F)c1)c1nc(-c2ccc(F)c(F)c2)cs1` [Compound 120, 1-(4-(cyclohexylmethoxy)-3-fluorophenyl)-1-(4-(3,4-difluorophenyl)thiazol-2-yl)urea], the figure is less than 1 µM.
On to `CCCCCCOc1ccc(N(C(N)=O)c2nc(-c3ccc4c(c3)NC(=O)CO4)cs2)cc1` [Compound 121, 1-(4-(hexyloxy)phenyl)-1-(4-(3-oxo-3,4-dihydro-2H-benzo[b][1,4]oxazin-6-yl)thiazol-2-yl)urea], for which the EC50 lay within 1 to 10 µM.
In the case of `CCCCCCOc1ccc(N(C(N)=O)c2nc(-c3ccc(F)cc3)cs2)cc1` [Compound 122, 1-(4-(4-fluorophenyl)thiazol-2-yl)-1-(4-(hexyloxy)phenyl)urea], the EC50 is less than 1 µM.
`CCCCCCOc1ccc(N(C(N)=O)c2nc(-c3ccccn3)cs2)cc1` [Compound 123, 1-(4-(hexyloxy)phenyl)-1-(4-(pyridin-2-yl)thiazol-2-yl)urea]: the EC50 was less than 1 µM.
For the compound `CCCCCCOc1ccc(N(C(N)=O)c2nc(-c3ccc(F)c(F)c3)cs2)cc1` [Compound 124, 1-(4-(3,4-difluorophenyl)thiazol-2-yl)-1-(4-(hexyloxy)phenyl)urea], the EC50 is less than 1 µM.
For the compound `CC(C)COc1ccc(N(C(N)=O)c2nc(-c3ccc(F)cc3)cs2)cc1C(F)(F)F` [Compound 125, 1-(4-(4-fluorophenyl)thiazol-2-yl)-1-(4-isobutoxy-3-(trifluoromethyl)phenyl)urea], the concentration for a half-maximal effect (EC50) was less than 1 µM.
With `CC(C)COc1ccc(N(C(N)=O)c2nc(-c3ccc(F)c(F)c3)cs2)cc1C(F)(F)F` [Compound 126, 1-(4-(3,4-difluorophenyl)thiazol-2-yl)-1-(4-isobutoxy-3-(trifluoromethyl)phenyl)urea], the EC50 was less than 1 µM.
The value for `CCCCCOc1ccc2c(c1)[nH]c(=O)n2-c1nc(-c2cccnc2)cs1` [Compound 127, 5-(pentyloxy)-1-(4-(pyridin-3-yl)thiazol-2-yl)-1H-benzo[d]imidazol-2(3H)-one] was 1 to 10 µM.
As for `CCCCCOc1ccc2c(c1)[nH]c(=O)c(=O)n2-c1nc(-c2cccnc2)cs1` [Compound 128, 6-(pentyloxy)-1-(4-(pyridin-3-yl)thiazol-2-yl)quinoxaline-2,3(1H,4H)-dione], the 50% effective concentration (EC50) was greater than 10 µM.
As to `CCCCCCCCOc1ccc(N(C(N)=O)c2nc(-c3cccnc3)cs2)cc1C(F)(F)F` [Compound 130, 1-(4-(octyloxy)-3-(trifluoromethyl)phenyl)-1-(4-(pyridin-3-yl)thiazol-2-yl)urea], the EC50 was less than 1 µM.
On to `CCCCCCCCOc1ccc(N(C(=O)C(N)=O)c2nc(-c3cccnc3)cs2)cc1C(F)(F)F` [Compound 131, N1-(4-(octyloxy)-3-(trifluoromethyl)phenyl)-N1-(4-(pyridin-3-yl)thiazol-2-yl)oxalamide], for which the EC50 was less than 1 µM.
The value for `CCCCOc1ccc(N(C(N)=O)c2nc(-c3ccc(C)nc3)cs2)cc1C(F)(F)F` [Compound 132, 1-(4-butoxy-3-(trifluoromethyl)phenyl)-1-(4-(6-methylpyridin-3-yl)thiazol-2-yl)urea] was less than 1 µM; that for `CCCCOc1ccc(N(C(N)=O)c2nc(-c3ccc(O)c(C(N)=O)c3)cs2)cc1C(F)(F)F` [Compound 133, 5-(2-(1-(4-butoxy-3-(trifluoromethyl)phenyl)ureido)thiazol-4-yl)-2-hydroxybenzamide] was less than 1 µM; that for `CCCCOc1ccc(N(C(N)=O)c2nc(-c3ccc4c(c3)NC(=O)CO4)cs2)cc1C(F)(F)F` [Compound 134, 1-(4-butoxy-3-(trifluoromethyl)phenyl)-1-(4-(3-oxo-3,4-dihydro-2H-benzo[b][1,4]oxazin-6-yl)thiazol-2-yl)urea] was 1 to 10 µM.
Turning to `CCCCOc1ccc(N(C(N)=O)c2nc(-c3ccc(F)cc3)cs2)cc1C(F)(F)F` [Compound 135, 1-(4-butoxy-3-(trifluoromethyl)phenyl)-1-(4-(4-fluorophenyl)thiazol-2-yl)urea], the concentration for a half-maximal effect (EC50) was less than 1 µM.
As for `CCCCOc1ccc(N(C(N)=O)c2nc(-c3cccnc3)cs2)cc1C(F)(F)F` [Compound 136, 1-(4-butoxy-3-(trifluoromethyl)phenyl)-1-(4-(pyridin-3-yl)thiazol-2-yl)urea], the EC50 was less than 1 µM.
For `CCCCOc1ccc(N(C(N)=O)c2nc(-c3ccncc3)cs2)cc1C(F)(F)F` [Compound 137, 1-(4-butoxy-3-(trifluoromethyl)phenyl)-1-(4-(pyridin-4-yl)thiazol-2-yl)urea], the EC50 was less than 1 µM.
For `CCCCOc1ccc(N(C(N)=O)c2nc(-c3ccc(F)c(F)c3)cs2)cc1C(F)(F)F` [Compound 138, 1-(4-butoxy-3-(trifluoromethyl)phenyl)-1-(4-(3,4-difluorophenyl)thiazol-2-yl)urea], the EC50 is less than 1 µM.
With `CCCCCN(C)c1ccc(N(C(N)=O)c2nc(-c3ccc(C)nc3)cs2)cc1C(F)(F)F` [Compound 139, 1-(4-(methyl(pentyl)amino)-3-(trifluoromethyl)phenyl)-1-(4-(6-methylpyridin-3-yl)thiazol-2-yl)urea], the EC50 was less than 1 µM.
